# Results taken from PMC5458547, “Discovery of first-in-class reversible dual small molecule inhibitors against G9a and DNMTs in hematological malignancies” (Nature Communications, 2017).
# Columns and labels:
# Assay in all cases: KINOMEscan kinase profiling
# Assay type in all cases: binding
# [1] = target: T1, ABL1(T315I)-phosphorylated (Homo sapiens, UniProt P00519, T315I); conditions: read-out: Percent Control
# T1 construct: purchased DiscoverX KINOMEscan (kinases); BPS Bioscience (epigenetic targets)
# Method: (§1) Kinase Selectivity Profiling
# (§2) (out of which 90 are non-mutant kinases) was performed at DiscoverRx (http://www.discoverx.com/home) using the KINOMEscan™ screening platform at a test concentration of 10 µM. Results for primary screen […]
# (§3) positive control signal) / (negative control signal – positive control signal) *100, where negative control corresponds to DMSO treatment (100%) and positive control to the signal obtained with a control competitive compound (0%). […]
# (§4) using the Hill equation. Each target was assayed in duplicate. […]
# ABL1-phosphorylated = target: T2, ABL1-phosphorylated (Homo sapiens, UniProt P00519); conditions: read-out: Percent Control
# T2 construct: purchased DiscoverX KINOMEscan (kinases); BPS Bioscience (epigenetic targets)
# Method: as §1, §2, §3, §4
# ACVR1B = target: T3, ACVR1B (Homo sapiens, UniProt P36896); conditions: read-out: Percent Control
# T3 construct: purchased DiscoverX KINOMEscan (kinases); BPS Bioscience (epigenetic targets)
# Method: as §1, §2, §3, §4
# AKT1 = target: T4, AKT1 (Homo sapiens, UniProt P31749); conditions: read-out: Percent Control
# T4 construct: purchased DiscoverX KINOMEscan (kinases); BPS Bioscience (epigenetic targets)
# Method: as §1, §2, §3, §4
# AKT2 = target: T5, AKT2 (Homo sapiens, UniProt P31751); conditions: read-out: Percent Control
# T5 construct: purchased DiscoverX KINOMEscan (kinases); BPS Bioscience (epigenetic targets)
# Method: as §1, §2, §3, §4
# ALK = target: T6, ALK (Homo sapiens, UniProt Q9UM73)
# T6 construct: purchased DiscoverRx (KINOMEscan contract screen)
# Method: as §1, §2, §3, §4
# AURKA = target: T7, AURKA (Homo sapiens, UniProt O14965); conditions: read-out: Percent Control
# T7 construct: purchased DiscoverX KINOMEscan (kinases); BPS Bioscience (epigenetic targets)
# Method: as §1, §2, §3, §4
# BMPR2 = target: T8, BMPR2 (Homo sapiens, UniProt Q13873); conditions: read-out: Percent Control
# T8 construct: purchased DiscoverX KINOMEscan (kinases); BPS Bioscience (epigenetic targets)
# Method: as §1, §2, §3, §4
# BRAF = target: T9, BRAF (Homo sapiens, UniProt P15056); conditions: read-out: Percent Control
# T9 construct: purchased DiscoverX KINOMEscan (kinases); BPS Bioscience (epigenetic targets)
# Method: as §1, §2, §3, §4
# CDK2 = target: T10, CDK2 (Homo sapiens, UniProt P24941); conditions: read-out: Percent Control
# T10 construct: purchased DiscoverX KINOMEscan (kinases); BPS Bioscience (epigenetic targets)
# Method: as §1, §2, §3, §4
# CDK3 = target: T11, CDK3 (Homo sapiens, UniProt Q00526); conditions: read-out: Percent Control
# T11 construct: purchased DiscoverX KINOMEscan (kinases); BPS Bioscience (epigenetic targets)
# Method: as §1, §2, §3, §4
# CDK9 = target: T12, CDK9 (Homo sapiens, UniProt P50750); conditions: read-out: Percent Control
# T12 construct: purchased DiscoverX KINOMEscan (kinases); BPS Bioscience (epigenetic targets)
# Method: as §1, §2, §3, §4
# CHEK1 = target: T13, CHEK1 (Homo sapiens, UniProt O14757); conditions: read-out: Percent Control
# T13 construct: purchased DiscoverX KINOMEscan (kinases); BPS Bioscience (epigenetic targets)
# Method: as §1, §2, §3, §4
# CSF1R = target: T14, CSF1R (Homo sapiens, UniProt P07333); conditions: read-out: Percent Control
# T14 construct: purchased DiscoverX KINOMEscan (kinases); BPS Bioscience (epigenetic targets)
# Method: as §1, §2, §3, §4
# CSNK1D = target: T15, CSNK1D (Homo sapiens, UniProt P48730); conditions: read-out: Percent Control
# T15 construct: purchased DiscoverX KINOMEscan (kinases); BPS Bioscience (epigenetic targets)
# Method: as §1, §2, §3, §4
# CSNK1G2 = target: T16, CSNK1G2 (Homo sapiens, UniProt P78368); conditions: read-out: Percent Control
# T16 construct: purchased DiscoverX KINOMEscan (kinases); BPS Bioscience (epigenetic targets)
# Method: as §1, §2, §3, §4
# ERBB4 = target: T17, ERBB4 (Homo sapiens, UniProt Q15303); conditions: read-out: Percent Control
# T17 construct: purchased DiscoverX KINOMEscan (kinases); BPS Bioscience (epigenetic targets)
# Method: as §1, §2, §3, §4
# FGFR3 = target: T18, FGFR3 (Homo sapiens, UniProt P22607); conditions: read-out: Percent Control
# T18 construct: purchased DiscoverX KINOMEscan (kinases); BPS Bioscience (epigenetic targets)
# Method: as §1, §2, §3, §4
# FLT3 = target: T19, FLT3 (Homo sapiens, UniProt P36888); conditions: read-out: Percent Control
# T19 construct: purchased DiscoverX KINOMEscan (kinases); BPS Bioscience (epigenetic targets)
# Method: as §1, §2, §3, §4
# IGF1R = target: T20, IGF1R (Homo sapiens, UniProt P08069); conditions: read-out: Percent Control
# T20 construct: purchased DiscoverX KINOMEscan (kinases); BPS Bioscience (epigenetic targets)
# Method: as §1, §2, §3, §4
# [2] = target: T21, JAK3(JH1domain-catalytic) (Homo sapiens, UniProt P52333)
# T21 construct: JAK3(JH1domain-catalytic); purchased DiscoverRx (DiscoverX), KINOMEscan screening platform
# Method: as §1, §2, §3, §4
# JNK2 = target: T22, JNK2 (Homo sapiens, UniProt P45984); conditions: read-out: Percent Control
# T22 construct: purchased DiscoverX KINOMEscan (kinases); BPS Bioscience (epigenetic targets)
# Method: as §1, §2, §3, §4
# MAP3K4 = target: T23, MAP3K4 (Homo sapiens, UniProt Q9Y6R4); conditions: read-out: Percent Control
# T23 construct: purchased DiscoverX KINOMEscan (kinases); BPS Bioscience (epigenetic targets)
# Method: as §1, §2, §3, §4
# MARK3 = target: T24, MARK3 (Homo sapiens, UniProt P27448); conditions: read-out: Percent Control
# T24 construct: purchased DiscoverX KINOMEscan (kinases); BPS Bioscience (epigenetic targets)
# Method: as §1, §2, §3, §4
# MEK1 = target: T25, MEK1 (Homo sapiens, UniProt Q02750); conditions: read-out: Percent Control
# T25 construct: purchased DiscoverX KINOMEscan (kinases); BPS Bioscience (epigenetic targets)
# Method: as §1, §2, §3, §4
# MET = target: T26, MET (Homo sapiens, UniProt P08581); conditions: read-out: Percent Control
# T26 construct: purchased DiscoverX KINOMEscan (kinases); BPS Bioscience (epigenetic targets)
# Method: as §1, §2, §3, §4
# MLK1 = target: T27, MLK1 (Homo sapiens, UniProt P80192); conditions: read-out: Percent Control
# T27 construct: purchased DiscoverX KINOMEscan (kinases); BPS Bioscience (epigenetic targets)
# Method: as §1, §2, §3, §4
# PAK2 = target: T28, PAK2 (Homo sapiens, UniProt Q13177); conditions: read-out: Percent Control
# T28 construct: purchased DiscoverX KINOMEscan (kinases); BPS Bioscience (epigenetic targets)
# Method: as §1, §2, §3, §4
# PAK4 = target: T29, PAK4 (Homo sapiens, UniProt O96013); conditions: read-out: Percent Control
# T29 construct: purchased DiscoverX KINOMEscan (kinases); BPS Bioscience (epigenetic targets)
# Method: as §1, §2, §3, §4
# PCTK1 = target: T30, PCTK1 (Homo sapiens, UniProt Q00536); conditions: read-out: Percent Control
# T30 construct: purchased DiscoverX KINOMEscan (kinases); BPS Bioscience (epigenetic targets)
# Method: as §1, §2, §3, §4
# PIK3CA = target: T31, PIK3CA (Homo sapiens, UniProt P42336); conditions: read-out: Percent Control
# T31 construct: purchased DiscoverX KINOMEscan (kinases); BPS Bioscience (epigenetic targets)
# Method: as §1, §2, §3, §4
# PIK3CG = target: T32, PIK3CG (Homo sapiens, UniProt P48736); conditions: read-out: Percent Control
# T32 construct: purchased DiscoverX KINOMEscan (kinases); BPS Bioscience (epigenetic targets)
# Method: as §1, §2, §3, §4
# PIM1 = target: T33, PIM1 (Homo sapiens, UniProt P11309); conditions: read-out: Percent Control
# T33 construct: purchased DiscoverX KINOMEscan (kinases); BPS Bioscience (epigenetic targets)
# Method: as §1, §2, §3, §4
# PKAC-alpha = target: T34, PKAC-alpha (Homo sapiens, UniProt P17612); conditions: read-out: Percent Control
# T34 construct: purchased DiscoverX KINOMEscan (kinases); BPS Bioscience (epigenetic targets)
# Method: as §1, §2, §3, §4
# PLK3 = target: T35, PLK3 (Homo sapiens, UniProt Q9H4B4); conditions: read-out: Percent Control
# T35 construct: purchased DiscoverX KINOMEscan (kinases); BPS Bioscience (epigenetic targets)
# Method: as §1, §2, §3, §4
# RET = target: T36, RET (Homo sapiens, UniProt P07949); conditions: read-out: Percent Control
# T36 construct: purchased DiscoverX KINOMEscan (kinases); BPS Bioscience (epigenetic targets)
# Method: as §1, §2, §3, §4
# [3] = target: T37, RSK2(Kin.Dom.1-N-terminal) (Homo sapiens, UniProt P51812); conditions: read-out: Percent Control
# T37 construct: RSK2(Kin.Dom.1-N-terminal); purchased DiscoverX KINOMEscan (kinases); BPS Bioscience (epigenetic targets)
# Method: as §1, §2, §3, §4
# [4] = target: T38, TYK2(JH1domain-catalytic) (Homo sapiens, UniProt P29597); conditions: read-out: Percent Control
# T38 construct: TYK2(JH1domain-catalytic); purchased DiscoverX KINOMEscan (kinases); BPS Bioscience (epigenetic targets)
# Method: as §1, §2, §3, §4
# p38-alpha = target: T39, p38-alpha (Homo sapiens, UniProt Q16539); conditions: read-out: Percent Control
# T39 construct: purchased DiscoverX KINOMEscan (kinases); BPS Bioscience (epigenetic targets)
# Method: as §1, §2, §3, §4
# [5] = 10 µM, read-out: Percent Control
# T21 sequence (P52333 822-1111 limits assumed): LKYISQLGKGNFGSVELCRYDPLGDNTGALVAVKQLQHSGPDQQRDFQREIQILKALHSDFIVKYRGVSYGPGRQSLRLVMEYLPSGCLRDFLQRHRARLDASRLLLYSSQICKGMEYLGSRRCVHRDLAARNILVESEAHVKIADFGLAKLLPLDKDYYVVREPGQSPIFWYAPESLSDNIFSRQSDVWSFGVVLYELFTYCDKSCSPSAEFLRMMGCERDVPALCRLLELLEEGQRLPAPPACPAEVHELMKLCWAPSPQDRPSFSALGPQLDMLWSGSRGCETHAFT
# T6 sequence (Q9UM73 19-1620): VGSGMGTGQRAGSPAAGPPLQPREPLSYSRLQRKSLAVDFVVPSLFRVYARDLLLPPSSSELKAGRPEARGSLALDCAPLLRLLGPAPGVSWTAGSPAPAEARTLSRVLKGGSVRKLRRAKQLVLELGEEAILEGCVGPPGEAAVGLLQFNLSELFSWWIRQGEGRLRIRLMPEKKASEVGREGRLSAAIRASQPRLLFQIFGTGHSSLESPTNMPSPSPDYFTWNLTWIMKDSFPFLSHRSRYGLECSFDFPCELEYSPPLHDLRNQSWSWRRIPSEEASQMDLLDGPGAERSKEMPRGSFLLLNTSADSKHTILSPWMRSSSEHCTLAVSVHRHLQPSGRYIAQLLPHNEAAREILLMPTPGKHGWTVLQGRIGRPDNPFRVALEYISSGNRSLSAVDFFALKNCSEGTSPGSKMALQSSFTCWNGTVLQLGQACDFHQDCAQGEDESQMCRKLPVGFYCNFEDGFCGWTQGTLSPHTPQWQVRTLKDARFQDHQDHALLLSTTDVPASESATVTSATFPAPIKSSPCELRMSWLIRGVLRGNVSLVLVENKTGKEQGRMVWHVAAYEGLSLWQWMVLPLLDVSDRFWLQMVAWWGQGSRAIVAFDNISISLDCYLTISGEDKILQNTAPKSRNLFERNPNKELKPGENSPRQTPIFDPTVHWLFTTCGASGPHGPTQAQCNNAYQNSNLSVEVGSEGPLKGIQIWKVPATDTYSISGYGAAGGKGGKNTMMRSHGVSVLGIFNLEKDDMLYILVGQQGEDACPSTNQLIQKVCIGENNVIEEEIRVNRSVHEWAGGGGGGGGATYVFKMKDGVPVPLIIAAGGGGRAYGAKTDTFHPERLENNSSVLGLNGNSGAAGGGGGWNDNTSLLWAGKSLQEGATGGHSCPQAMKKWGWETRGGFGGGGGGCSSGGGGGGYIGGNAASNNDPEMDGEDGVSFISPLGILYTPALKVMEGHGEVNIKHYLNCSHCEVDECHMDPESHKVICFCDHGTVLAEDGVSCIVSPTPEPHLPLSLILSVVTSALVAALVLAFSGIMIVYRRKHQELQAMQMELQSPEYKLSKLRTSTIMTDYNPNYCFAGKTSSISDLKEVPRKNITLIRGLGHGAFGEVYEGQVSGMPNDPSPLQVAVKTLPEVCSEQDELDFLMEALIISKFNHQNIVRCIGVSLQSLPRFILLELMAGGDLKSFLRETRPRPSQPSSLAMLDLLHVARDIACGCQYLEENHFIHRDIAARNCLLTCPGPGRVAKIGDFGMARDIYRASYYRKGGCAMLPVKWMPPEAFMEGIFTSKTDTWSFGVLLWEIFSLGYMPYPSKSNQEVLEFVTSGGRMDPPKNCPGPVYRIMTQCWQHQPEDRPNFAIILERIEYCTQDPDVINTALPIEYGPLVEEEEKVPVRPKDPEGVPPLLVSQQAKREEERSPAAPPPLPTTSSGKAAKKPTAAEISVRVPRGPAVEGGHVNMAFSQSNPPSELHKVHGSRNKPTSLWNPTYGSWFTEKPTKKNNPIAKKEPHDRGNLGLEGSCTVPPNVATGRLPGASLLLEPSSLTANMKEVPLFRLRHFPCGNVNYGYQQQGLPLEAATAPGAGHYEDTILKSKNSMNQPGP
# T17 sequence (Q15303 26-1308): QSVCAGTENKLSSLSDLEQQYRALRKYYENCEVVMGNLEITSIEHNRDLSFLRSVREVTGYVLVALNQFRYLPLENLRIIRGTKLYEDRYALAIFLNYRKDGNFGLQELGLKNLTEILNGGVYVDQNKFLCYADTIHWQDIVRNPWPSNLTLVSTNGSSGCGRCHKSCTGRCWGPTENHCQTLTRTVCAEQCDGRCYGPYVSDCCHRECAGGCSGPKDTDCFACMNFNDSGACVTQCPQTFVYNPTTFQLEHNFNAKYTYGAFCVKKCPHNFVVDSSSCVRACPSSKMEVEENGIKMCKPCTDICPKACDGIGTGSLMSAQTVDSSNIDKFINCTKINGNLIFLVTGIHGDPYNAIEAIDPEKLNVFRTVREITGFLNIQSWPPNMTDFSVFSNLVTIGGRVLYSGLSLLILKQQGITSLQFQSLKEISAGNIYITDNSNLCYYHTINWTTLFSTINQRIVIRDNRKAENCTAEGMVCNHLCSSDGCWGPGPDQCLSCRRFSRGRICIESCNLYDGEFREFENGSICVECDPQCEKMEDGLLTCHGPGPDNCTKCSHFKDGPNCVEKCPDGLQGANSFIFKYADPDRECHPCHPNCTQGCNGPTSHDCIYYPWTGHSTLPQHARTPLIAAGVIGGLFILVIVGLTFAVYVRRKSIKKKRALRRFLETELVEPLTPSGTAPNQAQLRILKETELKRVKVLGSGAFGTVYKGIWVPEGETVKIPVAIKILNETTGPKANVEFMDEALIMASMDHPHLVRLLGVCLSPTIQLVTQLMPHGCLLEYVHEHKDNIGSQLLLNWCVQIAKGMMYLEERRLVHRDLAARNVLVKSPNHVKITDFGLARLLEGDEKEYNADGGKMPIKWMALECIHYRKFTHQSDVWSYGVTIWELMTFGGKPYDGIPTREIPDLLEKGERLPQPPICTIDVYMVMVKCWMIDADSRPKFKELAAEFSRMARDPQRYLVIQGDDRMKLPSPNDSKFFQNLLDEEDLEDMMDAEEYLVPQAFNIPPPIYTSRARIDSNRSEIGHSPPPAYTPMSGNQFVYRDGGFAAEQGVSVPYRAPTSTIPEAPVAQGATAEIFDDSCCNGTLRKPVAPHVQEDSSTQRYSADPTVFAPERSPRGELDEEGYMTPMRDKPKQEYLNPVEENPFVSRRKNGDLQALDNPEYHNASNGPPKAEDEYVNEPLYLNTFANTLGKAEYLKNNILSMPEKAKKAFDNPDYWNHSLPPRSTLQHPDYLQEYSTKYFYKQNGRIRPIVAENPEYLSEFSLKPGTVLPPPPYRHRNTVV
# T13 sequence (O14757 whole entry): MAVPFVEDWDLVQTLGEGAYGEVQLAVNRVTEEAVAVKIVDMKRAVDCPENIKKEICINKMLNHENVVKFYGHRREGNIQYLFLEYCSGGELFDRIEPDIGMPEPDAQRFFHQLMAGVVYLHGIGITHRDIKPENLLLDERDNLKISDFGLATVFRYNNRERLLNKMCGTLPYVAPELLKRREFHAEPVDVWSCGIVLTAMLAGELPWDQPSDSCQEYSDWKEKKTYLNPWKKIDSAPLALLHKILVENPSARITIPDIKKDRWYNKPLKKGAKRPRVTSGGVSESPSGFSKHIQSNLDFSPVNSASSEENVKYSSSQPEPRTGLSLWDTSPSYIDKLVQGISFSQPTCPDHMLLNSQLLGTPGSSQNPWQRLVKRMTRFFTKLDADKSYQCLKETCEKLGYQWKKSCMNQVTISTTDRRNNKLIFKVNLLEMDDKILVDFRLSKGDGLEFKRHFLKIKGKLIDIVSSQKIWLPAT
# T31 sequence (P42336 whole entry): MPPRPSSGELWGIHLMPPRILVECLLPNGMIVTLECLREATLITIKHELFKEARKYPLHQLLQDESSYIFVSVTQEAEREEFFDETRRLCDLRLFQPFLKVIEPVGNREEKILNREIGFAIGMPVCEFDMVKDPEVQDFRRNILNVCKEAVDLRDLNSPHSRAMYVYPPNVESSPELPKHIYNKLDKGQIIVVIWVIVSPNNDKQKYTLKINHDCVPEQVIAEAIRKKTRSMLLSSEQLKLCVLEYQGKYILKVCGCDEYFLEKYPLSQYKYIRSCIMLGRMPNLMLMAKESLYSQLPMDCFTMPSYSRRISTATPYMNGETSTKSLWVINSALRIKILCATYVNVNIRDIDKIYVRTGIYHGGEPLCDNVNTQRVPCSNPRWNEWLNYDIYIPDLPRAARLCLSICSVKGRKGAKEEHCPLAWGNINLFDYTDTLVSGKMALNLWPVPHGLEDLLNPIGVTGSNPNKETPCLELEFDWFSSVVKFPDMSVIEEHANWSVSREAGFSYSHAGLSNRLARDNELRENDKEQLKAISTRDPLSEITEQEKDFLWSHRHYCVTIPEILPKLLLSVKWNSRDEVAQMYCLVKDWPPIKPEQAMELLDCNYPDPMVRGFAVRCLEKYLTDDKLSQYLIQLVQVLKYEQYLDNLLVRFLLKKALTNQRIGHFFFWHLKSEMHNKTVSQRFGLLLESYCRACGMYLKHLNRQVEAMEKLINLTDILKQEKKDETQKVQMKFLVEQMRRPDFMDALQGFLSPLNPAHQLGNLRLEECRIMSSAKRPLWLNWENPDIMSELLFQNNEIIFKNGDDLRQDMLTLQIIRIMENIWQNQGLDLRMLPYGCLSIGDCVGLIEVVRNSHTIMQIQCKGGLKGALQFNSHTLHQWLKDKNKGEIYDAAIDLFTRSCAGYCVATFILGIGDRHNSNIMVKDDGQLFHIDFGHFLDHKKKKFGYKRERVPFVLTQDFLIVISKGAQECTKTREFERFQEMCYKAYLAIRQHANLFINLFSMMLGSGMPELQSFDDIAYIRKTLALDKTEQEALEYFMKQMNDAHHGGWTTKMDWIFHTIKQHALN
# T39 sequence (Q16539 whole entry): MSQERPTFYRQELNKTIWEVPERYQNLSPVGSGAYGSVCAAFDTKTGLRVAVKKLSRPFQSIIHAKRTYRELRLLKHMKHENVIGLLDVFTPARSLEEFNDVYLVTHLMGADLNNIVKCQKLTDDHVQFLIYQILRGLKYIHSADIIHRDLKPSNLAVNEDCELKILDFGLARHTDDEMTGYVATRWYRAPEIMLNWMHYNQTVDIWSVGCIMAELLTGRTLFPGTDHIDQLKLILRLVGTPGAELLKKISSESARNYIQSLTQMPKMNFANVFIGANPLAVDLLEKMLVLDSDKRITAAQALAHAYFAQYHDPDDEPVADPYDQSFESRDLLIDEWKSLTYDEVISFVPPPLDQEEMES
compound,measurement,setting,value
"COc1cc2c(NC3CCN(C)CC3)cc(-c3ccc(C)o3)nc2cc1OCCCN1CCCC1 [CM-272, 6-methoxy-2-(5-methyl-2-furyl)-N-(1-methyl-4-piperidyl)-7-(3-pyrrolidin-1-ylpropoxy)quinolin-4-amine]",remaining binding at 10 µM,[1],25%
same,remaining binding at 10 µM,ABL1-phosphorylated,4.8%
same,remaining binding at 10 µM,ACVR1B,81%
same,remaining binding at 10 µM,AKT1,100%
same,remaining binding at 10 µM,AKT2,100%
same,remaining binding at 10 µM,ALK; [5],0.5%
same,Kd,ALK; KINOMEscan,820 nM
same,remaining binding at 10 µM,AURKA,71%
same,remaining binding at 10 µM,BMPR2,32%
same,remaining binding at 10 µM,BRAF,14%
same,remaining binding at 10 µM,CDK2,100%
same,remaining binding at 10 µM,CDK3,100%
same,remaining binding at 10 µM,CDK9,96%
same,remaining binding at 10 µM,CHEK1,99%
same,remaining binding at 10 µM,CSF1R,100%
same,remaining binding at 10 µM,CSNK1D,95%
same,remaining binding at 10 µM,CSNK1G2,95%
same,remaining binding at 10 µM,ERBB4,97%
same,remaining binding at 10 µM,FGFR3,100%
same,remaining binding at 10 µM,FLT3,100%
same,remaining binding at 10 µM,IGF1R,97%
same,remaining binding at 10 µM,[2]; [5],0%
same,Kd,[2]; KINOMEscan,1800 nM
same,remaining binding at 10 µM,JNK2,34%
same,remaining binding at 10 µM,MAP3K4,93%
same,remaining binding at 10 µM,MARK3,100%
same,remaining binding at 10 µM,MEK1,45%
same,remaining binding at 10 µM,MET,91%
same,remaining binding at 10 µM,MLK1,100%
same,remaining binding at 10 µM,PAK2,67%
same,remaining binding at 10 µM,PAK4,100%
same,remaining binding at 10 µM,PCTK1,23%
same,remaining binding at 10 µM,PIK3CA,40%
same,remaining binding at 10 µM,PIK3CG,88%
same,remaining binding at 10 µM,PIM1,93%
same,remaining binding at 10 µM,PKAC-alpha,100%
same,remaining binding at 10 µM,PLK3,73%
same,remaining binding at 10 µM,RET,100%
same,remaining binding at 10 µM,[3],46%
same,remaining binding at 10 µM,[4],22%
same,remaining binding at 10 µM,p38-alpha,96%
